Measured values from patent US9096544B2, “Therapeutic compounds” (Wayne State University, priority 2009, dated 2015).
≈ marks a conversion by molar mass, not a printed value. Read-outs that look alike come from different tables or passages of the source.

Tests used:
[1] = system: AML KG-1 human myeloid cell line; test: Test A: apoptosis induction in AML KG-1 cell line; format: cell-based
From the text: Inhibition of Cell Growth and Induction of Apoptosis in AML KG-1 Human Myeloid Cell Line.
Methods for measuring the inhibition of cell growth and induction of apotosis followed literature procedures (Dawson, M. I., et al., J. Med. Chem., 2007, 50, 2622-2639).

[2] = system: TF(v-SRC) cells; test: Test B: apoptosis of TF(v-SRC) cells (acridine orange/ethidium bromide, nuclear fragmentation); format: cell-based; settings: FIG. 2C
Protocol: FIG. 2 illustrates apoptosis induction in FFMA-AML and TF(v-SRC) cells by 3-Cl-AHPC and compound 16. Cells were seeded at 1×10^4 cells/ml, grown for 24 h and then exposed to 1 μM compound 16 or 3-Cl-AHPC A) at various concentrations of the compound for 96 h and B) for increasing times of exposure. C) Induction of apoptosis by 3-Cl-AHPC, all-trans-retinoic acid, 9-cis-retinoic acid and TTNPB in FFMA-AML and TF(v-SRC) cells. The percentage of apoptotic cells was determined using acridine orange and ethidium bromide staining to determine nuclear fragmentation as described in the general biochemical and pharmacological materials and methods. The error bars represent the mean of three separate determinations +/− the standard deviation (SD).
FFMA-AML cells were obtained from a patient with a diagnosis of AML as indicated by the immunophenotyping described in Table 1. This patient was refractory to the chemotherapy regimens consisting of cytosine arabinoside given with daunomycin as well as high-dose cytosine arabinoside. Peripheral blood samples were obtained from the patient utilizing a Wayne State University Institutional Review Board approved protocol and the leukemic blasts were isolated utilizing Ficoll hypaque. The isolated leukemic cells (representing >99% of the cells) were subsequently cultured in RPMI 1640 supplemented with 10% heat-inactivated fetal bovine serum (FBS) and growth factors interleukin 3 (IL-3), granulocyte-colony stimulating factor (G-CSF), granulocyte/macrophage colony-stimulating factor (GM-CSF), and stem cell factor (SCF) as we have previously reported, and then the cells were maintained in 10% FBS and gentamycin (Zhang Y. et al., Blood, 2003; […]:3743-3752). The TF(v-SRC) leukemia cells have been previously described (Black J. H. et al., Leukemia. 2003; 17:155-159). TF(v-SRC) cells were grown in RPMI 1640 supplemented with 10% heat inactivated FBS.
Apoptosis of cells was determined by (1) acridine orange and ethidium bromide-staining to assess cells with nuclear fragmentation and chromatin condensation as previously described (Farhana L. et al., Cancer Res. 2006; 65:4909-4917) and (2) flow cytometry assessing Annexin V-FITC binding together with propidium iodide staining (Annexin V-FITC apoptosis Detection kit 1, BD Biosciences, San Diego, Calif.). Data acquisition was done on a FACS Calibur flow cytometer (BD) and analyzed with CellQuest software.
Cells were grown in the presence and absence of increasing concentrations of either 3-Cl-AHPC or compound 16 and for varying periods of time. There was a progressive increase in 3-Cl-AHPC- and compound 16-mediated apoptosis in both FFMA-AML and TF(v-SRC) cells with time and with increasing concentrations of the compounds. […] We therefore tested the sensitivity of FFMA-AML and TF(v-SRC) cells to apoptosis induction by tRA, 9-cis RA, and TTNPB (FIG. 2C).

[3] = Test H: aqueous solubility by UV absorbance; format: physicochemical; settings: thermodynamic from solid, 22° C.
Protocol: Standard curves at the UV λmax (330, 350 and 345 nm for 3-Cl-AHPC, 18 and 16, respectively) were generated using 0.245, 0.163, 0.049 and 0.025 mM 3-Cl-AHPC and 0.380, 0.178, 0.053 and 0.027 mM 18 and 16, which were prepared from 1.0% (wt/vol) solutions of compounds in Me2SO. […] Measurements for maximum solubilities in distilled water (pH 5) and phosphate-buffered saline (PBS, pH 7.2) at 22° C. were made by UV absorbance using solutions obtained after saturation at higher temperatures, overnight incubation at 22° C., and centrifugation to remove undissolved material.

[4] = system: acute promyelocytic leukemia (APL); settings: pharmacologic concentrations; cited from earlier work

O=C(O)/C=C/c1ccc(-c2ccc(O)c(C34CC5CC(CC(C5)C3)C4)c2)c(Cl)c1
Apoptosis Induction (% control) 1.0 μM ([1]; treatment time 48 h): 30 % control
Apoptosis Induction (% control) 5.0 μM ([1]; treatment time 48 h): 55 % control

O=C(O)/C=C/c1ccc(-c2ccc(O)c(C34CC5CC(CC(C5)C3)C4)c2)nc1
Apoptosis Induction (% control) 1.0 μM ([1]; treatment time 48 h): 48 % control
Apoptosis Induction (% control) 5.0 μM ([1]; treatment time 48 h): 59 % control

CC(=O)Oc1ccc(-c2ccc(/C=C/C(=O)O)cn2)cc1C12CC3CC(CC(C3)C1)C2
Apoptosis Induction (% control) 1.0 μM ([1]; treatment time 48 h): 0 % control
Apoptosis Induction (% control) 5.0 μM ([1]; treatment time 48 h): 0 % control

O=C(O)/C=C/c1ccc(-c2ccc(O)c(C34CC5CC(CC(C5)C3)C4)c2)nn1
Apoptosis Induction (% control) 1.0 μM ([1]; treatment time 48 h): 52 % control
Apoptosis Induction (% control) 5.0 μM ([1]; treatment time 48 h): 67 % control

O=C(O)/C=C/c1cnc(-c2ccc(O)c(C34CC5CC(CC(C5)C3)C4)c2)c(Cl)c1
Apoptosis Induction (% control) 1.0 μM ([1]; treatment time 48 h): 55 % control
Apoptosis Induction (% control) 5.0 μM ([1]; treatment time 48 h): 65 % control

O=C(O)/C=C/c1ccc(-c2ccc(O)c(C34CC5CC(CC(C5)C3)C4)c2)cn1
Apoptosis Induction (% control) 1.0 μM ([1]; treatment time 48 h): 36 % control
Apoptosis Induction (% control) 5.0 μM ([1]; treatment time 48 h): 52 % control

CC1=C(/C=C/C(C)=C\C=C\C(C)=C\C(=O)O)C(C)(C)CCC1 [Compound 9-cis-RA, 9-cis-retinoic acid]
induction of apoptosis [2]: no real increase in apoptosis

O=C(O)CNc1cnc(-c2ccc(O)c(C34CC5CC(CC(C5)C3)C4)c2)nc1 [Compound 17, 2-[3-(1-Adamantyl)-4-hydroxyphenyl]-5-(carboxymethylamino)pyrimidine]
melting point: 235 °C (dec.)

CCOC(=O)/C=C/c1ccc(-c2ccc(O)c(C34CC5CC(CC(C5)C3)C4)c2)nc1 [Compound 18, Ethyl(E)-3-{6-[3′-(1-adamantyl)-4′-hydroxyphenyl]-3-pyridinyl}-2-propenoate]
solubility ([3]; phosphate-buffered saline, aqueous buffer, PBS pH 7.2, read-out: Solubility (μM) at 22° C. PBS (pH 7.2)): 14 µM (≈ 5.65 µg/mL)
solubility ([3]; distilled water pH 5, read-out: Solubility (μM) at 22° C. Distilled water (pH 5)): 7 µM (≈ 2.82 µg/mL)
melting point: 215 to 217 °C

O=C(O)/C=C/c1cnc(-c2ccc(O)c(C34CC5CC(CC(C5)C3)C4)c2)cn1 [Compound 23, (E)-3-{2-[3-(1-Adamantyl)-4-hydroxyphenyl]-5-pyrazinyl}-2-propenoic Acid]
melting point: 296 °C (dec.)

C/C(=C\c1ccc(C(=O)O)cc1)c1ccc2c(c1)C(C)(C)CCC2(C)C [TTNPB]
induction of apoptosis [2]: no real increase in apoptosis

O=C(O)/C=C/c1cnc(-c2ccc(O)c(C34CC5CC(CC(C5)C3)C4)c2)nc1 [drawing 23]
Apoptosis Induction (% control) 1.0 μM ([1]; treatment time 48 h): 40 % control
Apoptosis Induction (% control) 5.0 μM ([1]; treatment time 48 h): 50 % control

O=C(O)CNc1cnc(-c2ccc(O)c(C34CC5CC(CC(C5)C3)C4)c2)nc1 [drawing 24]
Apoptosis Induction (% control) 1.0 μM ([1]; treatment time 48 h): 0 % control
Apoptosis Induction (% control) 5.0 μM ([1]; treatment time 48 h): 0 % control

CCOC(=O)/C=C/c1ccc(-c2ccc(O)c(C34CC5CC(CC(C5)C3)C4)c2)nc1 [drawing 25]
Apoptosis Induction (% control) 1.0 μM ([1]; treatment time 24 h): 60 % control
Apoptosis Induction (% control) 1.0 μM ([1]; treatment time 48 h): 55 % control
Apoptosis Induction (% control) 5.0 μM ([1]; treatment time 24 h): 68 nd % control

O=C(O)/C=C/c1cnc(-c2ccc(O)c(C34CC5CC(CC(C5)C3)C4)c2)cn1 [drawing 30]
Apoptosis Induction (% control) 1.0 μM ([1]; treatment time 48 h): 39 % control
Apoptosis Induction (% control) 5.0 μM ([1]; treatment time 48 h): 50 % control

CC1=C(/C=C/C(C)=C/C=C/C(C)=C/C(=O)O)C(C)(C)CCC1 [tRA, all-trans-retinoic acid]
induction of apoptosis [2]: no real increase in apoptosis
patients achieving a complete remission [4]: 90%
